The IC50 is the midpoint of a concentration-inhibition curve. High values mean weaker potency in that assay, low ones greater potency in that assay.

We go through 34 molecules from ChEMBL document CHEMBL1212896, “Discovery of novel cyanodihydropyridines as potent mineralocorticoid receptor antagonists” (J Med Chem, 2010).

The assay has as its target T1, Mineralocorticoid receptor (Homo sapiens, UniProt P08235).
T1 sequence (P08235 whole entry): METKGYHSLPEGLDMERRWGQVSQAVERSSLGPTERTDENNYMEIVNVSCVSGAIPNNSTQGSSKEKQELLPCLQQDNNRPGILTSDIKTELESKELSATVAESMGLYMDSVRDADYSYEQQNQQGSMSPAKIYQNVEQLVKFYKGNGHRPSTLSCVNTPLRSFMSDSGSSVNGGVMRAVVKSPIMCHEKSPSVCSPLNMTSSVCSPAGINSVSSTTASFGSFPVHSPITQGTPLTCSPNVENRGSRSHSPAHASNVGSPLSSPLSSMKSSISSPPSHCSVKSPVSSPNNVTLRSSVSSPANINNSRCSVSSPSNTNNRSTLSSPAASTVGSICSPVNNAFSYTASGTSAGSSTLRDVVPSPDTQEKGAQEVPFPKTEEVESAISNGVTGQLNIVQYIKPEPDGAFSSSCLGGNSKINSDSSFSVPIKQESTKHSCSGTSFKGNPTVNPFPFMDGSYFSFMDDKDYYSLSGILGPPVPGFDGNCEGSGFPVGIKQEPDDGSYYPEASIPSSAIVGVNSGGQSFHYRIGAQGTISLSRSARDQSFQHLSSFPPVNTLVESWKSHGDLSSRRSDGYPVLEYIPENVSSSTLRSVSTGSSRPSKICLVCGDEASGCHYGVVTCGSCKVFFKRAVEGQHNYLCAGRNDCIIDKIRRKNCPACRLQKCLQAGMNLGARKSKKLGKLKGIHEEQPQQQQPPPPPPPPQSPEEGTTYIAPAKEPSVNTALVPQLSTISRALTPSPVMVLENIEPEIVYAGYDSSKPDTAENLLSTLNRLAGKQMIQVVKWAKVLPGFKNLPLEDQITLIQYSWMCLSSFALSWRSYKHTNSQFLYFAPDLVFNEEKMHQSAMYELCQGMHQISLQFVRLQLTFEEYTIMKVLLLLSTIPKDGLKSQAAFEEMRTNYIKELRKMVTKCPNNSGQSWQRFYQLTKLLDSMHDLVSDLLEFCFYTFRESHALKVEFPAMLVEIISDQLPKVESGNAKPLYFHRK
Description: Antagonist activity at mineralocorticoid receptor LBD expressed in human HUH7 cells coexpressing GAL4 by luciferase reporter gene assay
The molecule `COCCN1C(C)=C(C#N)C(c2ccc(F)cc2F)C(C(=O)OC(C)(C)C)=C1C` (centres undefined) yielded a concentration for half-maximal inhibition (IC50) of 3740 nM. The value for `COC(=O)C1=C(C(C)C)NC(C)=C(C#N)C1c1ccccc1Cl` (centres undefined) was 208 nM; that for `CC1=C(C#N)C(c2ccc(F)cc2)C(C(=O)OC(C)(C)C)=C(C)N1` (centres undefined) was 329 nM. In the case of `COC(=O)C1=C(C)NC(C)=C(C(=O)OC(C)(C)C)C1c1ccc(Cl)c(F)c1` (centres undefined), the IC50 was found to be 574 nM.

`COC(=O)C1=C(C)NC(C)=C(C(=O)OC(C)(C)C)C1c1ccccc1Cl` (centres undefined) returned an IC50 of 621 nM. The value for `COC(=O)C1=C(C)NC(C)=C(C(=O)OC(C)(C)C)C1c1ccccc1F` (centres undefined) was 2020 nM; that for `COC(=O)C1=C(C)NC(C)=C(C(=O)OC(C)(C)C)C1c1ccc(C(F)(F)F)cc1` (centres undefined) was 309 nM.

For `COC(=O)C1=C(C)NC(C)=C(C(=O)OC(C)(C)C)C1c1ccc(OC)cc1` (centres undefined), half-maximal inhibition (IC50) required 2620 nM.

As to `CCN1C(C)=C(C#N)C(c2ccc(F)cc2F)C(C(=O)OC(C)(C)C)=C1C` (centres undefined), the IC50 was determined as 1620 nM. The result for `COC(=O)C1=C(C)NC(C)=C(C(=O)OC(C)(C)C)C1c1ccc(O)cc1` (centres undefined) reads 2570 nM; that for `COC(=O)C1=C(C)NC(C)=C(C(=O)OC(C)(C)C)C1c1ccc(F)cc1` (centres undefined), 288 nM. Regarding `COC(=O)C1=C(C)NC(C)=C(C(=O)OC(C)(C)C)C1c1cccc(Cl)c1` (centres undefined), the IC50 was 518 nM.

On to `COC(=O)C1=C(C)NC(C)=C(C(=O)OC(C)(C)C)C1c1cccc(C(F)(F)F)c1` (centres undefined), for which the half-maximal inhibitory concentration (IC50) turned out to be 702 nM. The value for `COC(=O)C1=C(C)NC(C)=C(C(=O)OC(C)(C)C)C1c1ccccc1OC` (centres undefined) was 553 nM; that for `CCOC(=O)C1=C(c2ccc(Cl)cc2)NC(C)=C(C#N)C1c1ccccc1Cl` (centres undefined) was 1090 nM. The result for `COC(=O)C1=C(C)NC(C)=C(C(=O)OC(C)(C)C)C1c1cccc(OC)c1` (centres undefined) reads 888 nM; that for `COC(=O)C1=C(C)NC(C)=C(C(=O)OC(C)(C)C)C1c1cccc(C#N)c1` (centres undefined), 3200 nM; that for `COC(=O)C1=C(C)NC(C)=C(C(=O)OC(C)(C)C)C1c1cccc(O)c1` (centres undefined), 2830 nM. The value for `COC(=O)C1=C(C)NC(C)=C(C(=O)OC(C)(C)C)C1c1cccc(C)c1` (centres undefined) was 2790 nM. Molecule `COCC1=C(C(=O)OC)C(c2ccccc2Cl)C(C#N)=C(C)N1` (centres undefined) yielded an IC50 of 655 nM. The value for `COC(=O)C1=C(Cc2ccccc2)NC(C)=C(C#N)C1c1ccccc1Cl` (centres undefined) was 852 nM; that for `CCOC(=O)C1=C(c2ccccc2)NC(C)=C(C#N)C1c1ccccc1Cl` (centres undefined) was 923 nM; that for `CCCC1=C(C(=O)OC)C(c2ccccc2)C(C#N)=C(C)N1` (centres undefined) was 7430 nM. The result for `COC(=O)C1=C(C)NC(C)=C(C(=O)OC(C)(C)C)C1c1ccc(C)cc1` (centres undefined) reads 12000 nM; that for `COC(=O)C1=C(C)NC(C)=C(C#N)C1c1ccccc1Cl` (centres undefined), 594 nM. The result for `COC(=O)C1=C(C)NC(C)=C(C(=O)OC(C)(C)C)C1c1ccc(Cl)cc1` (centres undefined) reads 319 nM.

As to `CC1=C(C#N)C(c2ccc(F)cc2F)C(C(=O)OC(C)(C)C)=C(C)N1` (centres undefined), inhibition was half-maximal at 201 nM (IC50).

`COC(=O)C1=C(C)NC(C)=C(C(=O)OC(C)(C)C)C1c1ccc(F)cc1Cl` (centres undefined) registered a half-maximal inhibitory concentration (IC50) of 78 nM. The value for `COC(=O)C1=C(C)NC(C)=C(C(=O)OC(C)(C)C)C1c1cccc(F)c1` (centres undefined) was 1390 nM; that for `CC1=C(C#N)C(C)(c2ccc(F)cc2)C(C(=O)OC(C)(C)C)=C(C)N1` (centres undefined) was 661 nM. The value for `COC(=O)C1=C(C)NC(C)=C(C(=O)OC(C)(C)C)C1c1ccccc1C(F)(F)F` (centres undefined) was 224 nM. Molecule `COC(=O)C1=C(C)NC(C)=C(C(=O)OC(C)(C)C)C1c1ccccc1C` (centres undefined) came in with a half-maximal inhibitory concentration (IC50) of 208 nM. Consider `CCC1=C(C(=O)OC)C(c2ccccc2Cl)C(C#N)=C(C)N1` (centres undefined), for which half-maximal inhibition (IC50) required 232 nM.

Turning to `COC(=O)C1=C(C(F)(F)F)N(C)C(C)=C(C#N)C1c1ccc(F)cc1Cl` (centres undefined), half-maximal inhibition (IC50) required 275 nM.
